Results published in patent US20210212996A1, “METHODS OF TREATING NEURODEGENERATIVE DISEASES USING INDANE ACETIC ACID DERIVATIVES WHICH PENETRATE THE BLOOD BRAIN BARRIER” (DARA BioSciences, Inc., priority 2009, published 2021).
Where two headings read alike, the source gives them in different places.

How the values were obtained:
human PPARγ = molecular target: T1, human PPARγ (Homo sapiens, UniProt P37231); experiment: Human PPAR activation in transient transfection study, transfected CV-1 cells (gamma subtype); format: cell-based
T1 construct: expressed in transfected cells; host or cells: CV-1 cells (transient transfection)
T1 sequence (P37231 1-505): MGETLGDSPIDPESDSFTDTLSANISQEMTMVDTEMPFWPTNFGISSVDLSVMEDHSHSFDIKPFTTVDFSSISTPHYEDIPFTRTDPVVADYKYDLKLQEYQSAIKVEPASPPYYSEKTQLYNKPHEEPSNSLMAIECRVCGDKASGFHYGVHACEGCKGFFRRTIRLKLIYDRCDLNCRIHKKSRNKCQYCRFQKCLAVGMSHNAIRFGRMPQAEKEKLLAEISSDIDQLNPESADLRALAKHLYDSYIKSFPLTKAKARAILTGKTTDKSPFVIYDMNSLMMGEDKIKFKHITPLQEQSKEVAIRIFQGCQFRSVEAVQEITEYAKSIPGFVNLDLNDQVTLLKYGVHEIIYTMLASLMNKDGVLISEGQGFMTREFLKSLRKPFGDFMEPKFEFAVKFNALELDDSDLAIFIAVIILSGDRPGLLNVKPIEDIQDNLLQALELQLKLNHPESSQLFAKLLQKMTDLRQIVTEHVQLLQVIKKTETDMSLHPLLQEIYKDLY
Text: (§1) The table summarize the results of studies performed in transfected CV-1 cells with three different lots of Compound of Example 11. […].

human PPARδ = molecular target: T2, human PPARδ (Homo sapiens, UniProt Q03181); experiment: Human PPAR activation in transient transfection study, transfected CV-1 cells (delta subtype); format: cell-based
T2 construct: expressed in transfected cells; host or cells: CV-1 cells (transient transfection)
T2 sequence (Q03181 1-441): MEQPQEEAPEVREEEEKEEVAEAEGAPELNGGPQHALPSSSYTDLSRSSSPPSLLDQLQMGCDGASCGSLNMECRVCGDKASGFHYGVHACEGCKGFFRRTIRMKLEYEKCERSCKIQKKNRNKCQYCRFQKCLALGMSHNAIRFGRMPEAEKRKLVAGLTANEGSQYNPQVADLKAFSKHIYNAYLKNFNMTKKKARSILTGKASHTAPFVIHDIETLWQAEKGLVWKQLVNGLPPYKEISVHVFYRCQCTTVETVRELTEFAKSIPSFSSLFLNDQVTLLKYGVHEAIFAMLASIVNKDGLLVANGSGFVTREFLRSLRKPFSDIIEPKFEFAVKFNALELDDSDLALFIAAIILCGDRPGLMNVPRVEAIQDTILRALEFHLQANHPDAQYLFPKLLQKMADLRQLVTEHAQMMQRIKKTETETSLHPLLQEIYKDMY

human PPARα = molecular target: T3, human PPARα (Homo sapiens, UniProt Q07869); experiment: Human PPAR activation in transient transfection study, transfected CV-1 cells (alpha subtype); format: cell-based
T3 construct: expressed in transfected cells; host or cells: CV-1 cells (transient transfection)
T3 sequence (Q07869 1-468): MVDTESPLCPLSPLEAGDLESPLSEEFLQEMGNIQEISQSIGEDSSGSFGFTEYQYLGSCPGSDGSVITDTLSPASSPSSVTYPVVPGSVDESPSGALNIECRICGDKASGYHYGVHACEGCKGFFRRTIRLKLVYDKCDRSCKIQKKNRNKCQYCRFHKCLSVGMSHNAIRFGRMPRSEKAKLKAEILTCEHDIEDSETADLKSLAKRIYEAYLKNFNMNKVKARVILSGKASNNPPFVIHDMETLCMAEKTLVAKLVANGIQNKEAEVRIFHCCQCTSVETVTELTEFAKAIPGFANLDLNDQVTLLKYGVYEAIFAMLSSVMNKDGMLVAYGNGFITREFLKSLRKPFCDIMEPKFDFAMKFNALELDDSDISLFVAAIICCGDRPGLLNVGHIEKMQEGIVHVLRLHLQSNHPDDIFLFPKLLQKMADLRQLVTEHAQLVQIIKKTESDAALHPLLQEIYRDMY
Text: as §1

[1] = Caco-2 permeability with and without P-gp inhibitor verapamil; conditions: human, Caco-2
human Caco-2 = experiment: as above; conditions: Caco-2 with/without verapamil
[2] = test system: Relative Cerebral Metabolic Rate for glucose; experiment: FDG-PET clinical study, two week treatment; format: in vivo, human
Text: The majority were non-Hispanic and of white origin.

[3] = Rat brain penetrance pharmacokinetics, brain to plasma ratio after oral dosing; format: in vivo, male Sprague-Dawley rats; conditions: for concentration at 7 h: time point 7.0, individual rats
Text: Blood brain penetration studies can be carried out as described in recent publications and as is known by those skilled in the art. (See: Chang, K. L., et al. Influence of drug transporters and stereoselectivity on the brain penetration of pioglitazone as a potential medicine against Alzheimer's disease. Science Reports 2014, 5, 9000). In brief, A good measure of whether a small molecule penetrates the BBB and is not rapidly transported out, is the brain to plasma ratio of the drug. This is measured in pre-clinical animal models by determining plasma concentration vs time curves as in a standard pharmacokinetic study, and in addition harvesting brains and determining whole brain concentrations over time. The brain to plasma concentration ratio can them be determined at any time point, such as the […], or for the entire time curve (AUC, area under the curve). Clinically, FDG-PET can be used as a measure of the pharmacological effect of T3D-959, and an indirect measure of brain levels of drug.
For compounds of the present invention to be effective in treating neurotoxicity or neurodegeneration, it must have an ability to cross the BBB and penetrate the brain. […] The plasma exposure as measured by AUClast was 9569±1190 hr*ng/mL.

**Q.** With `CCc1oc(-c2ccc(OC)cc2)nc1CCOc1ccc2c(c1)CC[C@H]2CC(=O)[O-].[Na+]` [Example 11, Sodium (S)-2-(5-(2-(5-ethyl-2-(4-methoxyphenyl)oxazol-4-yl)ethoxy)-2,3-dihydro-1H-inden-1-yl)acetate] as the molecule, how does the EC50 (human PPARγ; Lot A, Non GMP, read-out: EC50 PPARγ) read?
**A.** 220 nM

**Q.** What about the EC50 (human PPARγ; Lot B, GLP Nonclinical Studies, read-out: EC50 PPARγ) of the same molecule?
**A.** 270 nM

**Q.** And the EC50 (human PPARγ; Lot C, cGMP material, read-out: EC50 PPARγ)?
**A.** 400 nM

**Q.** And the EC50 (human PPARγ; average of three lots, read-out: Average EC50 PPARγ)?
**A.** 297 nM

**Q.** And the EC50 (human PPARδ; Lot A, Non GMP, read-out: EC50 PPARδ)?
**A.** 15 nM

**Q.** What about the EC50 (human PPARδ; Lot B, GLP Nonclinical Studies, read-out: EC50 PPARδ) of the same molecule?
**A.** 27 nM

**Q.** And the EC50 (human PPARδ; Lot C, cGMP material, read-out: EC50 PPARδ)?
**A.** 16 nM

**Q.** And the EC50 (human PPARδ; average of three lots, read-out: Average EC50 PPARδ)?
**A.** 19 nM

**Q.** What about the EC50 (human PPARα; Lot A, Non GMP, read-out: EC50 PPARα) of the same molecule?
**A.** 488 nM

**Q.** And the EC50 (human PPARα; Lot B, GLP Nonclinical Studies, read-out: EC50 PPARα)?
**A.** 750 nM

**Q.** And the EC50 (human PPARα; Lot C, cGMP material, read-out: EC50 PPARα)?
**A.** 360 nM

**Q.** And the “selectivity over the human PPAR alpha subtype” value (human PPARα; PPARδ vs PPARα)?
**A.** ~30 fold

**Q.** And the EC50 (human PPARα; average of three lots, read-out: Average EC50 PPARα)?
**A.** 530 nM

**Q.** What about the Papp [1] of the same molecule?
**A.** 114 ×10⁻⁶ cm/s

**Q.** What about the P-gp substrate (human Caco-2) of the same molecule?
**A.** not a substrate for P-gp

**Q.** And the “number of voxels with statistically significant differences from baseline to end of treatment (ROSDs)” value ([2]; 10 mg)?
**A.** 70 voxels

**Q.** What about the “penetration of the Blood Brain Barrier (FDG-PET, voxel-wise analysis)” value ([2]; clinical, 3 to 90 mg) of the same molecule?
**A.** penetrates the Blood Brain Barrier (BBB) even at the lowest 3 mg

**Q.** What about the “dose dependence of the effect on FDG-PET outcomes” value ([2]; sROI, anatomical ROI and voxel-wise SPM analyses) of the same molecule?
**A.** dose-dependent, with larger effects observed at larger doses

**Q.** And the “time plasma Cmax reached post dose” value ([3]; 3 mg/kg oral)?
**A.** 5 h

**Q.** What about the concentration at 7 h ([3]; male, Sprague-Dawley, rat, brain, oral, 3 mg/kg, read-out: Brain Tissue Cone.) of the same molecule?
**A.** 130 ng/g

**Q.** And the Kp at 3 h ([3]; male, Sprague-Dawley, rat, in vivo, 3 mg/kg, time point 3.0, individual rats, read-out: B/P Ratio)?
**A.** 0.19

**Q.** What about the concentration at 3 h ([3]; male, Sprague-Dawley, rat, in vivo, 3 mg/kg, time point 3.0, individual rats, read-out: Brain Tissue Cone.) of the same molecule?
**A.** 274 ng/g

**Q.** And the concentration at 3 h ([3]; male, Sprague-Dawley, rat, in vivo, 3 mg/kg, time point 3.0, individual rats, read-out: Plasma Conc.)?
**A.** 1430 ng/mL

**Q.** And the Kp at 5 h ([3]; male, Sprague-Dawley, rat, in vivo, 3 mg/kg, time point 5.0, individual rats, read-out: B/P Ratio)?
**A.** 0.17

**Q.** What about the concentration at 5 h ([3]; male, Sprague-Dawley, rat, in vivo, 3 mg/kg, time point 5.0, individual rats, read-out: Brain Tissue Cone.) of the same molecule?
**A.** 208 ng/g

**Q.** What about the concentration at 5 h ([3]; male, Sprague-Dawley, rat, in vivo, 3 mg/kg, time point 5.0, individual rats, read-out: Plasma Conc.) of the same molecule?
**A.** 1260 ng/mL

**Q.** And the concentration at 7 h ([3]; male, Sprague-Dawley, rat, in vivo, 3 mg/kg, read-out: Brain Tissue Cone.)?
**A.** 203 ng/g

**Q.** And the Kp at 12 h ([3]; male, Sprague-Dawley, rat, in vivo, 3 mg/kg, time point 12.0, individual rats, read-out: B/P Ratio)?
**A.** 0.3

**Q.** And the concentration at 12 h ([3]; male, Sprague-Dawley, rat, in vivo, 3 mg/kg, time point 12.0, individual rats, read-out: Brain Tissue Cone.)?
**A.** 104 ng/g

**Q.** What about the concentration at 12 h ([3]; male, Sprague-Dawley, rat, in vivo, 3 mg/kg, time point 12.0, individual rats, read-out: Plasma Conc.) of the same molecule?
**A.** 345 ng/mL

**Q.** What about the Kp at 1 h ([3]; male, Sprague-Dawley, rat, in vivo, po, 3 mg/kg, 1 hour, 3 mg/kg oral) of the same molecule?
**A.** 0.361 ± 0.142

**Q.** What about the Kp at 3 h ([3]; male, Sprague-Dawley, rat, in vivo, po, 3 mg/kg, 3 hours, 3 mg/kg oral, read-out: Brain/Plasma ratio) of the same molecule?
**A.** 0.22 ± 0.033

**Q.** And the Kp at 5 h ([3]; male, Sprague-Dawley, rat, in vivo, po, 3 mg/kg, 5 hours, 3 mg/kg oral, read-out: Brain/Plasma ratio)?
**A.** 0.171 ± 0.011

**Q.** What about the Kp at 7 h ([3]; male, Sprague-Dawley, rat, in vivo, po, 3 mg/kg, 7 hours, 3 mg/kg oral) of the same molecule?
**A.** 0.328 ± 0.154

**Q.** What about the Kp at 12 h ([3]; male, Sprague-Dawley, rat, in vivo, po, 3 mg/kg, 12 hours, 3 mg/kg oral, read-out: Brain/Plasma ratio) of the same molecule?
**A.** 0.35 ± 0.077

**Q.** What about the half-life ([3]; male, Sprague-Dawley, rat, in vivo, 3 mg/kg oral) of the same molecule?
**A.** 3.33 h

**Q.** And the Cmax ([3]; male, Sprague-Dawley, rat, in vivo, 3 mg/kg oral, normal saline)?
**A.** 1550 ± 248 ng/mL

**Q.** And the AUC(0-t) ([3]; male, Sprague-Dawley, rat, in vivo, 3 mg/kg oral, read-out: plasma exposure AUClast)?
**A.** 9570 ± 1190 ng·h/mL

**Q.** And the concentration at 3 h ([3]; male, Sprague-Dawley, rat, plasma, oral, 3 mg/kg, time point 3.0, individual rats, read-out: Plasma Conc.)?
**A.** 910 ng/mL
